Structures are written as SMILES.

For assay [1], the target named is T1, mouse PPARγ ligand-binding site (Mus musculus, UniProt P37238).
T1 construct: expressed in transfected cells; host or cells: CV-1 cells (African green monkey kidney)
T1 sequence (P37238 174-475 isoform P37238-2): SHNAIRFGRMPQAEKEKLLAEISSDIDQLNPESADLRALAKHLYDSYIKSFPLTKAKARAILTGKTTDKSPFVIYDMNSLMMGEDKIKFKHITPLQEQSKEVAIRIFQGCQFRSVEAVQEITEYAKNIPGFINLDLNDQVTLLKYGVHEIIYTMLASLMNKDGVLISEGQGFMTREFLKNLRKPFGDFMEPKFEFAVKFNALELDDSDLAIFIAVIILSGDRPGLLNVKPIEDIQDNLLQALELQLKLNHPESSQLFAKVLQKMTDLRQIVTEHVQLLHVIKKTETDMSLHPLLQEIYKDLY
Nature of the assay: Measurement of PPARγ ligand activity (GAL4 chimera luciferase reporter in CV-1 cells). The class given is cell-based. To be noted: for PPARγ ligand activity: CV-1 cells, 24 hours, specific activity relative to untreated control (DMSO) = 1.00; for PPARγ ligand activity compared with positive control troglitazone (in words): compared with 0.5 μM troglitazone. The protocol:
CV-1 cells (cultured cells derived from the kidney of a male African green monkey) were inoculated on a 96-well culture plate in a concentration of 6×10^3 cells/well and incubated at 37° C. in 5% CO2 for 24 hours. The medium used was DMEM (Dulbecco's Modified Eagle Medium: GIBCO) containing 10% FBS (fetal bovine serum), 10 ml/L penicillin and streptomycin solution (containing 5000 IU/ml and 5,000 μg/ml, respectively: GIBCO) and 37 mg/L ascorbic acid (Wako Pure Chemical Industries, Ltd.). […] 4xUASg-luc is a reporter plasmid comprising four GAL4 response sequences (UASg) integrated into a region upstream of a luciferase gene. At about 24 hours after transfection, the medium was exchanged with a sample-containing medium, and the cells were cultured for 24 hours (n=4). The sample-containing medium was prepared by dissolving a sample in dimethyl sulfoxide (DMSO) in an amount of 1/1000 based on the medium, while for the untreated control, DMSO in an amount of 1/1000 based on the medium was used in place of the sample. After the cells were washed with a Ca- and Mg-containing phosphate buffered physiological saline (PBS+), LucLite (Packard) was added thereto, and the intensity of luciferase luminescence was measured with a TopCount microplate scintillation/luminescence counter (Packard).
As the control group, pM (plasmid from which the PPARγ ligand-binding site gene was removed) was measured in place of pM-mPPARγ in the same manner as for the measurement group. For each sample, the ratio (measurement group/control group) of the average luminescence intensity of the measurement group (n=4) to that of the control group was calculated, and the specific activity relative to the activity of the untreated control was regarded as the PPARγ ligand activity of the sample.
(In general: Reporter assays use an easily measured gene product as a stand-in for the process of interest.)

The subject of assay [2] is KK-Ay mouse. The assay is described as follows: Glucose tolerance test (sucrose loading) in KK-Ay mice. Conditions: for Blood glucose level: oral pioglitazone 20 mg/kg or Compound 2 100 mg/kg. The assay is classed as in vivo. The protocol:
After the mixed feed was given for 1 week, the mice were fasted overnight and then subjected to a glucose tolerance test. […] To the non-additive group (control group), 0.5% CMC-Na solution was administered in an amount of 5 ml/kg. At a time of 30 minutes after administration, the mice were loaded with 2 g/kg of 40% sucrose solution. Before the sugar loading and at a time of 30 minutes, 1 hour and 2 hours after the sugar loading, a small amount of blood was collected from a mouse tail vein, and measured for its blood glucose level by a simple blood glucose measuring instrument Glutest Ace (Sanwa Kagaku Kenkyusho Co., Ltd.).

Assay [3] relates to KK-Ay mouse. The assay is described as follows: Effect on type 2 diabetes mellitus model mouse: blood glucose level during mixed-feed administration. The class given is in vivo. Conditions: KK-Ay mice; for Blood glucose level: means±SE, n=5. As to the method:
Using a KK-Ay mouse which is genetically obese and type 2 diabetic animal, the effect of Compound 2 on diabetes mellitus was evaluated.
Compound 2 was prepared in the same procedure as in Example 1 and added to the basal diet such that the content of Compound 2 in a final feed was 0.1%. On the day before administration and 4 days after administration, a small amount of blood was collected from a mouse tail vein, and measured for its blood glucose level by a simple blood glucose measuring instrument Glutest Ace (Sanwa Kagaku Kenkyusho Co., Ltd.).

The mark [4] stands for this setting: 30 minutes after sugar loading (2 g/kg sucrose).
Setting [5] is: 1 hour after sugar loading (2 g/kg sucrose).
The mark [6] stands for this setting: before sugar loading, fasted KK-Ay mice after 1 week mixed feed.
Setting [7] is: 4 days after administration, in feed: pioglitazone 0.02%, Compound 2 0.1%.

`COc1cc2oc(=O)c(-c3ccc(O)cc3O)cc2c(OC)c1CC=C(C)C` [Compound 2, Glycyrin]: the PPARγ ligand activity in assay [1] (added concentration 2 μg/ml) was found to be 2.81; in assay [1] (added concentration 5 μg/ml), 3.34; in assay [1] (added concentration 10 μg/ml), 3.67. For the same compound, the Blood glucose level with KK-Ay mouse [2] (setting [4]) turned out to be 225 ± 27 mg/dL; in the assay with KK-Ay mouse [2] (setting [5]) it was 129 ± 8 mg/dL; in the assay with KK-Ay mouse [2] (2 hour after sugar loading (2 g/kg sucrose)), 100 ± 3 mg/dL; in the assay with KK-Ay mouse [2] (setting [6]) it was 78 ± 4 mg/dL; in the assay on KK-Ay mouse [3] (setting [7]), 278 ± 14 mg/dL; in the assay with KK-Ay mouse [3] (before administration), 474 ± 27 mg/dL. Moreover, the “Increase in blood glucose levels after the sugar loading (in words)” value in the assay with KK-Ay mouse [2] (KK-Ay mice, 100 mg/kg oral) is “statistically significantly inhibited a rapid increase in blood glucose levels after the sugar loading”. Also, the “Blood glucose levels on the fourth day after the administration (in words)” value in the assay with KK-Ay mouse [3] (0.1% in feed) was “statistically significantly reduced”.
`CC(C)=CCc1cc(C(=O)CC(=O)c2cc3c(cc2O)OC(C)(C)C=C3)ccc1O` [Compound 28, Glycyrdione C]: the PPARγ ligand activity in assay [1] (added concentration 2 μg/ml) is 0.96; in assay [1] (added concentration 5 μg/ml) it was 1.48; in assay [1] (added concentration 10 μg/ml), 2.04. For the same compound, the “PPARγ ligand activity compared with positive control troglitazone (in words)” value in assay [1] was “slightly weaker than that of a positive control containing 0.5 μM troglitazone”.
With `CC1(C)[C@@H](O)CC[C@]2(C)[C@H]3C(=O)C=C4[C@@H]5C[C@@](C)(C(=O)O)CC[C@]5(C)CC[C@@]4(C)[C@]3(C)CC[C@@H]12` [Glycyrrhetinic acid, glycyrrhetinic acid, reference compound], the PPARγ ligand activity in assay [1] (added concentration 2 μg/ml) stood at 0.97; in assay [1] (added concentration 5 μg/ml), 0.95; in assay [1] (added concentration 10 μg/ml), 0.97. Moreover, the “PPARγ ligand activity compared with positive control troglitazone (in words)” value in assay [1] is “not recognized to have a PPARγ ligand activity”.
As to `CCc1ccc(CCOc2ccc(CC3SC(=O)NC3=O)cc2)nc1` (stereo not shown) [Pioglitazone, pioglitazone, reference compound], the Blood glucose level with KK-Ay mouse [2] (setting [4]) came out at 158 ± 11 mg/dL; in the assay on KK-Ay mouse [2] (setting [5]), 136 ± 5 mg/dL; in the assay on KK-Ay mouse [2] (setting [6]), 89 ± 3 mg/dL; in the assay with KK-Ay mouse [3] (setting [7]) it was 191 ± 6 mg/dL; in the assay with KK-Ay mouse [3] (before administration), 486 ± 26 mg/dL.
On to `O=c1c(O)c(-c2ccc(O)c(O)c2)oc2cc(O)cc(O)c12` [Quercetin, quercetin, reference compound], for which the PPARγ ligand activity came out at 1.15 in assay [1] (added concentration 2 μg/ml), 1.72 in assay [1] (added concentration 5 μg/ml) and 1.70 in assay [1] (added concentration 10 μg/ml). For the same compound, the “PPARγ ligand activity compared with positive control troglitazone (in words)” value in assay [1] is recorded as “not recognized to have a PPARγ ligand activity”.

(Values after patent US7524975B2, “Peroxisome proliferator activated receptor ligand and process for producing the same” (Kaneka Corporation, priority 2001, dated 2009).)
